How the values were obtained:
Type in all cases: cell-based, human
SF-268 = experiment: NCI-60 one-dose screen (CNS cancer); conditions: 10 µM single dose, 48 h
Protocol: (§1) The obtained quinolinequinones were submitted to NCI, Bethesda, USA, and, as per standard protocol of NCI, all compounds were evaluated for their antiproliferative activity at single-dose assay (10 µM concentration in DMSO) on a panel of 60 cancer cell lines derived from leukemia, non-small-cell lung, colon, CNS, melanoma, ovarian, renal, prostate, and breast, as per protocol. Tested compounds were added to the microtiter culture plates followed by incubation for 48 h at 37 °C. Sulforhodamine B (SRB), a protein-binding dye, is used for endpoint determination. The percent of the growth of the treated cells was determined in comparison to the untreated control cells and the results of each tested compound were reported. Data from one-dose experiments pertain to the percentage growth at 10 μM [16, 17, 18].

SF-295 = experiment: NCI-60 one-dose screen (CNS cancer); conditions: 10 µM single dose, 48 h
Protocol: as §1

SF-539 = experiment: NCI-60 one-dose screen (CNS cancer); conditions: 10 µM single dose; for GP (growth percentage): 48 h
Protocol: as §1

SNB-19 [1] = experiment: NCI-60 one-dose screen (CNS cancer); conditions: 10 µM single dose, 48 h
Protocol: as §1

SNB-75 = experiment: NCI-60 one-dose screen (CNS cancer); conditions: 10 µM single dose, 48 h
Protocol: as §1

U251 = experiment: NCI-60 one-dose screen (CNS cancer); conditions: 10 µM single dose, 48 h
Protocol: as §1

IGROV1 [2] = experiment: NCI-60 one-dose screen (ovarian cancer); conditions: 10 µM single dose, 48 h
Protocol: as §1

NCI/ADR-RES [3] = experiment: NCI-60 one-dose screen (ovarian cancer); conditions: 10 µM single dose; for GP (growth percentage): 48 h
Protocol: as §1

OVCAR-4 = experiment: NCI-60 one-dose screen (ovarian cancer); conditions: 10 µM single dose, 48 h
Protocol: as §1

OVCAR-5 [4] = experiment: NCI-60 one-dose screen (ovarian cancer); conditions: 10 µM single dose, 48 h
Protocol: as §1

OVCAR-8 [5] = experiment: NCI-60 one-dose screen (ovarian cancer); conditions: 10 µM single dose; for GP (growth percentage): 48 h; for inhibition at 10 µM: Homo sapiens
Protocol: as §1

SK-OV-3 = experiment: NCI-60 one-dose screen (ovarian cancer); conditions: 10 µM single dose, 48 h
Protocol: as §1

786-0 = experiment: NCI-60 one-dose screen (renal cancer); conditions: 10 µM single dose, 48 h
Protocol: as §1

A498 = experiment: NCI-60 one-dose screen (renal cancer); conditions: 10 µM single dose, 48 h
Protocol: as §1

ACHN [6] = experiment: NCI-60 one-dose screen (renal cancer); conditions: 10 µM single dose, 48 h
Protocol: as §1

SN12C = experiment: NCI-60 one-dose screen (renal cancer); conditions: 10 µM single dose, 48 h
Protocol: as §1

TK-10 = experiment: NCI-60 one-dose screen (renal cancer); conditions: 10 µM single dose, 48 h
Protocol: as §1

UO-31 = experiment: NCI-60 one-dose screen (renal cancer); conditions: 10 µM single dose, 48 h
Protocol: as §1

DU-145 = experiment: NCI-60 one-dose screen (prostate cancer); conditions: 10 µM single dose, 48 h
Protocol: as §1

PC-3 = experiment: NCI-60 one-dose screen (prostate cancer); conditions: 10 µM single dose; for GP (growth percentage): 48 h; for inhibition at 10 µM: Homo sapiens
Protocol: as §1

BT-549 = experiment: NCI-60 one-dose screen (breast cancer); conditions: 10 µM single dose, 48 h
Protocol: as §1

HS 578T = experiment: NCI-60 one-dose screen (breast cancer); conditions: 10 µM single dose; for GP (growth percentage): 48 h
Protocol: as §1

MCF7 = experiment: NCI-60 one-dose screen (breast cancer); conditions: 10 µM single dose, 48 h
Protocol: as §1

MDA-MB-231/ATCC = experiment: NCI-60 one-dose screen (breast cancer); conditions: 10 µM single dose, 48 h
Protocol: as §1

MDA-MB-468 = experiment: NCI-60 one-dose screen (breast cancer); conditions: 10 µM single dose, 48 h
Protocol: as §1

T-47D = experiment: NCI-60 one-dose screen (breast cancer); conditions: 10 µM single dose, 48 h
Protocol: as §1

K-562 = experiment: NCI-60 five-dose assay (leukemia); conditions: SRB; for GI50 / LC50: Homo sapiens, K562, 48 h
MOLT-4 = experiment: NCI-60 five-dose assay (leukemia); conditions: 48 h, SRB; for GI50 / LC50: Homo sapiens
SR = experiment: NCI-60 five-dose assay (leukemia); conditions: 48 h, SRB; for GI50 / CC50: Homo sapiens; for CC50: read-out: LC50 (the source's name)
KM12 = experiment: NCI-60 five-dose assay (colon cancer); conditions: 48 h, SRB; for GI50 / CC50: Homo sapiens; for CC50: read-out: LC50 (the source's name)
SNB-19 [7] = experiment: NCI-60 five-dose assay (CNS cancer); conditions: 48 h, SRB; for GI50 / CC50: Homo sapiens; for CC50: read-out: LC50 (the source's name)
MALME-3M = experiment: NCI-60 five-dose assay (melanoma); conditions: 48 h, SRB; for GI50 / LC50: Homo sapiens
SK-MEL-2 = experiment: NCI-60 five-dose assay (melanoma); conditions: 48 h, SRB; for GI50 / CC50: Homo sapiens; for CC50: read-out: LC50 (the source's name)
SK-MEL-28 = experiment: NCI-60 five-dose assay (melanoma); conditions: 48 h, SRB; for GI50 / LC50: Homo sapiens
UACC-257 = experiment: NCI-60 five-dose assay (melanoma); conditions: 48 h, SRB; for GI50 / LC50 (NCI-60 lethal concentration, 50% cell kill): Homo sapiens
IGROV1 [8] = experiment: NCI-60 five-dose assay (ovarian cancer); conditions: SRB; for TGI: 48 h; for GI50 / LC50: Homo sapiens, IGROV-1, 48 h
OVCAR-5 [9] = experiment: NCI-60 five-dose assay (ovarian cancer); conditions: 48 h, SRB; for GI50 / LC50 (lethal concentration 50%): Homo sapiens
OVCAR-8 [10] = experiment: NCI-60 five-dose assay (ovarian cancer); conditions: 48 h, SRB; for GI50 / CC50: Homo sapiens; for CC50: read-out: LC50 (the source's name)
NCI/ADR-RES [11] = experiment: NCI-60 five-dose assay (ovarian cancer); conditions: 48 h, SRB; for GI50 / CC50: Homo sapiens; for CC50: read-out: LC50 (the source's name)
ACHN [12] = experiment: NCI-60 five-dose assay (renal cancer); conditions: 48 h, SRB; for GI50 / LC50: Homo sapiens

COc1ccccc1NC1=C(Cl)C(=O)c2nc(C)ccc2C1=O [AQQ1]
GP (growth percentage) (SF-268): 47.42%
GP (growth percentage) (SF-295): 96.61%
GP (growth percentage) (SF-539): 1.78%
inhibition at 10 µM (SF-539; Homo sapiens): 98.2%
GP (growth percentage) (SNB-19 [1]): 38.92%
GP (growth percentage) (SNB-75): 105.38%
GP (growth percentage) (U251): 62.79%
GP (growth percentage) (IGROV1 [2]): −83.51%
GP (growth percentage) (NCI/ADR-RES [3]): 7.08%
inhibition at 10 µM (NCI/ADR-RES [3]; Homo sapiens): 92.9%
GP (growth percentage) (OVCAR-4): −98.22%
GP (growth percentage) (OVCAR-5 [4]): 78.91%
GP (growth percentage) (OVCAR-8 [5]): 9.87%
inhibition at 10 µM (OVCAR-8 [5]): 90.1%
GP (growth percentage) (SK-OV-3): 88.34%
GP (growth percentage) (786-0): 9.17%
GP (growth percentage) (A498): 71.81%
GP (growth percentage) (ACHN [6]): −99.93%
GP (growth percentage) (SN12C): −49.46%
GP (growth percentage) (TK-10): 147.78%
GP (growth percentage) (UO-31): −65.68%
GP (growth percentage) (DU-145): −57.26%
GP (growth percentage) (PC-3): 27.39%
inhibition at 10 µM (PC-3): 72.6%
GP (growth percentage) (BT-549): 83.54%
GP (growth percentage) (HS 578T): 72.15%
GP (growth percentage) (MCF7): −60.38%
GP (growth percentage) (MDA-MB-231/ATCC): −57.30%
GP (growth percentage) (MDA-MB-468): −79.74%
GP (growth percentage) (T-47D): −44.73%
TGI (K-562; 48 h): 2.94 µM
GI50 (K-562): 0.29 µM
LC50 (K-562): > 100 µM
TGI (MOLT-4): 8.60 µM
GI50 (MOLT-4): 2.27 µM
LC50 (MOLT-4): > 100 µM
TGI (SR): 4.25 µM
GI50 (SR): 0.794 µM
CC50 (SR): > 100 µM
TGI (KM12): 3.08 µM
GI50 (KM12): 1.49 µM
CC50 (KM12): 6.4 µM
TGI (SNB-19 [7]): 3.72 µM
GI50 (SNB-19 [7]): 1.81 µM
CC50 (SNB-19 [7]): 7.64 µM
TGI (MALME-3M): 3.19 µM
GI50 (MALME-3M): 1.71 µM
LC50 (MALME-3M): 5.95 µM
TGI (SK-MEL-2): 3.34 µM
GI50 (SK-MEL-2): 1.81 µM
CC50 (SK-MEL-2): 6.19 µM
TGI (SK-MEL-28): 3.34 µM
GI50 (SK-MEL-28): 1.85 µM
LC50 (SK-MEL-28): 6.02 µM
TGI (UACC-257): 3.09 µM
GI50 (UACC-257): 1.57 µM
LC50 (NCI-60 lethal concentration, 50% cell kill) (UACC-257): 6.11 µM
TGI (IGROV1 [8]): 2.92 µM
GI50 (IGROV1 [8]): 1.46 µM
LC50 (IGROV1 [8]): 5.86 µM
TGI (OVCAR-5 [9]): 3.42 µM
GI50 (OVCAR-5 [9]): 1.86 µM
LC50 (lethal concentration 50%) (OVCAR-5 [9]): 6.29 µM
TGI (OVCAR-8 [10]): 3.25 µM
GI50 (OVCAR-8 [10]): 1.61 µM
CC50 (OVCAR-8 [10]): 6.59 µM
TGI (NCI/ADR-RES [11]): 5.16 µM
GI50 (NCI/ADR-RES [11]): 2.03 µM
CC50 (NCI/ADR-RES [11]): 34.6 µM
TGI (ACHN [12]): 2.80 µM
GI50 (ACHN [12]): 1.47 µM
LC50 (ACHN [12]): 5.34 µM

CCOc1ccccc1NC1=C(Cl)C(=O)c2nc(C)ccc2C1=O [AQQ2]
GP (growth percentage) (SF-268): 32.75%
GP (growth percentage) (SF-295): 90.72%
GP (growth percentage) (SF-539): −37.33%
GP (growth percentage) (SNB-19 [1]): 46.47%
GP (growth percentage) (SNB-75): 101.38%
GP (growth percentage) (U251): 37.89%
GP (growth percentage) (IGROV1 [2]): −57.52%
GP (growth percentage) (NCI/ADR-RES [3]): −9.58%
GP (growth percentage) (OVCAR-4): −91.97%
GP (growth percentage) (OVCAR-5 [4]): 40.78%
GP (growth percentage) (OVCAR-8 [5]): 0.93%
inhibition at 10 µM (OVCAR-8 [5]): 99.1%
GP (growth percentage) (SK-OV-3): 85.34%
GP (growth percentage) (786-0): −88.18%
GP (growth percentage) (A498): 78.84%
GP (growth percentage) (ACHN [6]): −99.15%
GP (growth percentage) (SN12C): −50.97%
GP (growth percentage) (TK-10): 124.08%
GP (growth percentage) (UO-31): −92.96%
GP (growth percentage) (DU-145): −85.02%
GP (growth percentage) (PC-3): 4.34%
inhibition at 10 µM (PC-3): 95.7%
GP (growth percentage) (BT-549): 44.40%
GP (growth percentage) (HS 578T): 1.05%
inhibition at 10 µM (HS 578T; Homo sapiens): 99%
GP (growth percentage) (MCF7): −59.68%
GP (growth percentage) (MDA-MB-231/ATCC): −63.63%
GP (growth percentage) (MDA-MB-468): −90.72%
GP (growth percentage) (T-47D): −40.00%
GI50 (K-562): 0.341 µM
LC50 (K-562): > 100 µM
TGI (MOLT-4): 8.09 µM
GI50 (MOLT-4): 2.03 µM
LC50 (MOLT-4): > 100 µM
TGI (SR): 4.14 µM
GI50 (SR): 0.543 µM
CC50 (SR): > 100 µM
TGI (KM12): 2.89 µM
GI50 (KM12): 1.41 µM
CC50 (KM12): 5.92 µM
TGI (SNB-19 [7]): 3.97 µM
GI50 (SNB-19 [7]): 1.8 µM
CC50 (SNB-19 [7]): 8.73 µM
TGI (MALME-3M): 2.77 µM
GI50 (MALME-3M): 1.36 µM
LC50 (MALME-3M): 5.64 µM
TGI (SK-MEL-2): 2.86 µM
GI50 (SK-MEL-2): 1.44 µM
CC50 (SK-MEL-2): 5.69 µM
TGI (SK-MEL-28): 3.14 µM
GI50 (SK-MEL-28): 1.71 µM
LC50 (SK-MEL-28): 5.79 µM
TGI (UACC-257): 2.61 µM
GI50 (UACC-257): 1.28 µM
LC50 (NCI-60 lethal concentration, 50% cell kill) (UACC-257): 5.34 µM
TGI (IGROV1 [8]): 2.82 µM
GI50 (IGROV1 [8]): 1.37 µM
LC50 (IGROV1 [8]): 5.84 µM
TGI (OVCAR-5 [9]): 3.33 µM
GI50 (OVCAR-5 [9]): 1.84 µM
LC50 (lethal concentration 50%) (OVCAR-5 [9]): 6.03 µM
TGI (OVCAR-8 [10]): 2.92 µM
GI50 (OVCAR-8 [10]): 1.49 µM
CC50 (OVCAR-8 [10]): 5.7 µM
TGI (NCI/ADR-RES [11]): 5.09 µM
GI50 (NCI/ADR-RES [11]): 1.89 µM
CC50 (NCI/ADR-RES [11]): > 100 µM
TGI (ACHN [12]): 2.69 µM
GI50 (ACHN [12]): 1.35 µM
LC50 (ACHN [12]): 5.35 µM
